In brackets after ≈: the same amount, converted by molar mass. Like-named read-outs stand apart in the source and are kept apart here.
Assays:
[1] = test system: vancomycin-resistant Enterococcus (VRE); test: Broth microdilution antibacterial assay; type: cell-based; conditions: for MIC / IC50: Enterococcus; for IC50: average of two biological replicates ± S.D., read-out: IC50; for Selectivity index (CC50/IC50): MRC-5 CC50 / VRE IC50
Method: (§1) Antibacterial Assay Procedure
(§2) Broth Microdilution Assays
(§3) Media and solutions were autoclaved or sterile filtered prior to use and manipulations were carried out in a laminar flow hood. Antibacterial testing was performed in polypropylene 96 -well flat bottom plates. The minimal inhibitory concentration of blasticidin S ( 1) hydrochloride, P10 (2), and derivatives 15–22 were assessed against Staphylococcus aureus ΔNorA, S. aureus 8810, methicillin-resistant S. aureus (MRSA) ATCC 43300, Enterococcus faecalis ATCC 29212, vancomycin-resistant Enterococcus, Klebsiella pneumoniae ATCC 29665, Pseudomonas aeruginosa, and Acinetobacter baumannii ATCC 17978 using serial dilutions. Doxycycline (Gold Bio) as a positive control and the vehicle as a negative control. Stock solutions of each compound were prepared at 5.12 mg/mL in 50% DMSO/water and serially diluted in 50% DMSO/water to create master plates. From the master plates, 10 μL of each dilution was applied to test plates using a Bravo automated liquid transfer system (Agilent). Bacteria previously grown overnight (37 °C, 120 – 200 RPM), in LB broth were diluted to an OD600 of 0.0 5 in cation-adjusted Mueller-Hinton broth, grown to an OD600 of ~0.5, and diluted to an OD600 of 0.004 in cation-adjusted Mueller-Hinton broth. These diluted cultures were applied to the test plates (190 μL per test well) resulting in final concentrations of the test compounds of 256–2 μg/mL. Growth controls (wells with inoculated media but no vehicle or test compounds) were included to assess any potential toxicity from the vehicle. The plates were incubated at 37 °C for 16–18 h, except for VRE and E. faecalis, which were incubated at 37 °C for 24 h. Inhibition was determined by measuring the optical density at 600 nm (OD600) with a Cytation 3 plate reader (BioTek). The optical density measurements were normalized to the positive and negative controls and the vehicle and growth controls were compared and found to be indistinguishable, indicating no toxicity from the vehicle used. The MIC was the lowest concentration that inhibited >90% of growth. Two biological replicates were performed in duplicate. MIC values are reported […]
(§4) as a range from biological replicates. Inhibition curves were generated using Prism (GraphPad).
(§5) The IC50 values reported in Table 2 are the average of the two biological replicates ± standard […]
(§6) Cytotoxicity Assay Procedure
(§7) Human lung fibroblast cells, MRC -5 (CCL-171), were cultured at 37℃ with 5% CO2 and were plated at 5000 cells/well in a 96 -well plate. Compounds 1, 2, and 15-22 were initially prepared at concentrations of 5.12 mg/mL in a vehicle of 50% DMSO. Dilutions of the compounds (4 – 512 μg/mL) were then prepared in growth medium containing Dulbecco’s modified Eagle’s medium (DMEM) with high glucose, L -glutamine, and sodium pyruvate supplemented with 10% fetal bovine serum (FBS), 1% non -essential amino acids, and 0.1% gentamicin sulfate, and 25mM HEPES. The vehicle (50% DMSO) was also prepared via the sa me dilution series to serve as a control. Growth media was removed from the cells and replaced with the same volume of each compound dilution. Cells were incubated for 24 h , after which CellTiter 96® AQueous One Solution Reagent was added to each well as recommended by the manufacturer’s protocol (Promega CellTiter 96 AQueous One Solution Cell Proliferation Assay) and further incubated for 4 h. After incubation, absorbance was measured at 490 nm on an Infinite M plex multimode microplate reader with i -control Tecan software. Viability was calculated by subtracting media only absorbance values and normalizing to the vehicle control at each concentration. The presented data is one assay performed in triplicate that is representative of multiple trials. Data for the 256 and 512 μg/mL concentrations were removed from analysis due to vehicle toxicity […]
(§8) CC50 concentrations were determined via the ED50 Plus v1.0 software (https://archive.org/details/ed50v10_zip).

[2] = test system: Acinetobacter baumannii ATCC 17978; test: Broth microdilution antibacterial assay; type: cell-based; conditions: for MIC / IC50: Acinetobacter baumannii, ATCC17978; for IC50: average of two biological replicates ± S.D., read-out: IC50; for Selectivity index (CC50/IC50): MRC-5 CC50 / A. baumannii IC50
Method: as §1, §2, §3, §4, §5, §6, §7, §8

[3] = test system: Staphylococcus aureus ΔNorA; test: Broth microdilution antibacterial assay; type: cell-based; conditions: for Selectivity index (CC50/IC50): MRC-5 CC50 / S. aureus ΔNorA IC50; for IC50 / MIC: Staphylococcus aureus
Method: as §1, §2, §3, §4, §5, §6, §7, §8

[4] = test system: Enterococcus faecalis ATCC 29212; test: Broth microdilution antibacterial assay; type: cell-based; conditions: for MIC / IC50: Enterococcus faecalis, ATCC29212; for IC50: average of two biological replicates ± S.D. (18: one biological replicate), read-out: IC50; for Selectivity index (CC50/IC50): MRC-5 CC50 / E. faecalis IC50
Method: as §1, §2, §3, §4, §5, §6, §7, §8

Pseudomonas aeruginosa = test: Broth microdilution antibacterial assay; type: cell-based; conditions: for Selectivity index (CC50/IC50): MRC-5 CC50 / P. aeruginosa IC50; for MIC / IC50: Pseudomonas aeruginosa; for IC50: average of two biological replicates ± S.D., read-out: IC50
Method: as §1, §2, §3, §4, §5, §6, §7, §8

[5] = test system: Klebsiella pneumoniae ATCC 29665; test: Broth microdilution antibacterial assay; type: cell-based; conditions: for IC50 / MIC: Klebsiella pneumoniae, ATCC29665, K. pneumoniae; for IC50: average of two biological replicates ± S.D., read-out: IC50; for MIC: lowest concentration inhibiting >90% of growth, range from biological replicates, read-out: MIC; for Selectivity index (CC50/IC50): MRC-5 CC50 / K. pneumoniae IC50
Method: as §1, §2, §3, §4, §5, §6, §7, §8

in vitro = type: cell-based, human; conditions: human; MRC-5 (lung fibroblast); 24 h; one biological replicate (n = 3); read-out: CC50 for human cells
Method: as §4, §5, §6, §7, §8
Figure S41. The effect of compounds on cell viability. The lines represent non -linear regression curves, and error bars represent means ± […]
SD (n=3). […]

[6] = test system: methicillin-resistant S. aureus (MRSA) ATCC 43300; test: Broth microdilution antibacterial assay; type: cell-based, Staphylococcus aureus; conditions: for Selectivity index (CC50/IC50): MRC-5 CC50 / MRSA IC50; for IC50 / MIC: Staphylococcus aureus; for IC50: average of two biological replicates ± S.D., read-out: IC50
Method: as §1, §2, §3, §4, §5, §6, §7, §8

S. aureus 8810 = test: Broth microdilution antibacterial assay; type: cell-based, Staphylococcus aureus; conditions: for Selectivity index (CC50/IC50): MRC-5 CC50 / S. aureus IC50; for IC50 / MIC: Staphylococcus aureus, 8810; for IC50: average of two biological replicates ± S.D., read-out: IC50
Method: as §1, §2, §3, §4, §5, §6, §7, §8

[7] = VRE, average MIC, Table S3, read-out: Average Activity against VRE
[8] = VRE, 24 h, lowest concentration inhibiting >90% of growth, range from biological replicates, read-out: MIC
[9] = E. faecalis, 24 h, lowest concentration inhibiting >90% of growth, range from biological replicates, read-out: MIC
[10] = average MIC, Table S3, read-out: Average Activity against E. faecalis
[11] = MRSA, lowest concentration inhibiting >90% of growth, range from biological replicates, read-out: MIC
[12] = average MIC, Table S3, read-out: Average Activity against MRSA
[13] = S. aureus, lowest concentration inhibiting >90% of growth, range from biological replicates, read-out: MIC
[14] = average MIC, Table S3, read-out: Average Activity against S. aureus

SMILES | MIC [1, 7] [µg/mL] | MIC [1, 8] [µg/mL] | IC50 ([1]; VRE) [µg/mL] | Selectivity index (CC50/IC50) [1] | IC50 ([2]; A. baumannii) [µg/mL] | Selectivity index (CC50/IC50) [2] | Selectivity index (CC50/IC50) [3] | IC50 [3] [µg/mL] | MIC [3] [µg/mL] | MIC [4, 9] [µg/mL] | IC50 ([4]; E. faecalis) [µg/mL] | MIC [4, 10] [µg/mL] | Selectivity index (CC50/IC50) [4] | Selectivity index (CC50/IC50) (Pseudomonas aeruginosa) | IC50 (Pseudomonas aeruginosa; P. aeruginosa) [µg/mL] | IC50 [5] [µg/mL] | MIC [5] [µg/mL] | Selectivity index (CC50/IC50) [5] | CC50 at 24 h (in vitro) [µg/mL] | Selectivity index (CC50/IC50) [6] | other results
CCNC(=O)[C@H]1O[C@@H](n2ccc(N)nc2=O)C=C[C@@H]1NC(=O)C[C@@H](N)CCN(C)C(=N)N [Compound 16] | 64 (≈ 142 µM) | 64 (≈ 142 µM) | 20.2 ± 8.1 (≈ 44.9 µM) | 6.8 | 35.7 ± 11 (≈ 79.4 µM) | 3.8 | 7.0 | 19.6 ± 1.8 (≈ 43.6 µM) | 128 (≈ 285 µM) | 16 to 32 (≈ 35.6 to 71.2 µM) | 9.6 ± 4 (≈ 21.4 µM) | 16 (≈ 35.6 µM) | 14 | 6.3 | 21.8 ± 2.7 (≈ 48.5 µM) | 60.1 ± 6.2 (≈ 134 µM) | 256 (≈ 570 µM) | 2.3 | 137 (≈ 305 µM) | 9.2 | MIC [2]: 128 µg/mL (≈ 285 µM); MIC (Pseudomonas aeruginosa): 64 to 128 µg/mL (≈ 142 to 285 µM); IC50 ([6]; MRSA): 14.9 ± 1.6 µg/mL (≈ 33.1 µM); MIC [6, 11]: 32 µg/mL (≈ 71.2 µM); MIC [6, 12]: 32 µg/mL (≈ 71.2 µM); Selectivity index (CC50/IC50) (S. aureus 8810): 26; IC50 (S. aureus 8810; S. aureus): 5.3 ± 1.5 µg/mL (≈ 11.8 µM); MIC (S. aureus 8810; [13]): 32 µg/mL (≈ 71.2 µM); MIC (S. aureus 8810; [14]): 32 µg/mL (≈ 71.2 µM)
CN(CC[C@H](N)CC(=O)N[C@H]1C=C[C@H](n2ccc(N)nc2=O)O[C@@H]1C(=O)NCCc1ccccc1)C(=N)N [Compound 22] | 32 (≈ 60.9 µM) | 32 (≈ 60.9 µM) | 11.1 ± 0.8 (≈ 21.1 µM) | 5.2 | 183 ± 19 (≈ 348 µM) | 0.3 | 3.0 | 19.3 ± 0.2 (≈ 36.7 µM) | 128 (≈ 244 µM) | 8 (≈ 15.2 µM) | 6.1 ± 2.6 (≈ 11.6 µM) | 8 (≈ 15.2 µM) | 9.6 | 3.5 | 16.5 ± 2.1 (≈ 31.4 µM) | 36.9 ± 4.7 (≈ 70.2 µM) | 256 (≈ 487 µM) | 1.6 | 58.4 (≈ 111 µM) | 15 | increase in potency compared to 1 ([1]; VRE, MIC): 8 fold; MIC ([2]; A. baumannii, lowest concentration inhibiting >90% of growth, range from biological replicates, read-out: MIC): > 256 µg/mL; MIC (Pseudomonas aeruginosa; P. aeruginosa, lowest concentration inhibiting >90% of growth, range from biological replicates, read-out: MIC): 64 µg/mL (≈ 122 µM); increase in potency compared to 1 ([6]; MRSA, MIC): 16 to 32 fold; better activity than the phenethyl ester of the previous study ([6]; MRSA, ester data ref 8): 4- to 8 fold; IC50 ([6]; MRSA): 4 ± 0.3 µg/mL (≈ 7.61 µM); MIC [6, 11]: 8 to 16 µg/mL (≈ 15.2 to 30.4 µM); MIC [6, 12]: 12 µg/mL (≈ 22.8 µM); Selectivity index (CC50/IC50) (S. aureus 8810): 15; better activity than the phenethyl ester of the previous study (S. aureus 8810; S. aureus, ester data ref 8): 4- to 8 fold; IC50 (S. aureus 8810; S. aureus): 3.8 ± 0.2 µg/mL (≈ 7.23 µM); MIC (S. aureus 8810; [13]): 16 µg/mL (≈ 30.4 µM); MIC (S. aureus 8810; [14]): 12 µg/mL (≈ 22.8 µM)

From PMC10945559, “Forgotten Natural Products: Semisynthetic Development of Blasticidin S As an Antibiotic Lead” (ACS Medicinal Chemistry Letters, 2024)
